Test results taken from PubChem BioAssay (NCI).
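Briefly, cells in 96-well plates were exposed to five compound concentrations for 48 h, and endpoints were estimated by linear interpolation. TGI marks complete inhibition of growth.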

How the values were obtained:
Assay in all cases: inhibition of tumour cell growth, NCI panel, 48 h
K-562 leukemia = system: K-562 leukemia
A549 NSCLC = system: A549 NSCLC
UACC-257 melanoma = system: UACC-257 melanoma
OVCAR-8 ovarian = system: OVCAR-8 ovarian
SF-268 CNS = system: SF-268 CNS
NCI-H23 lung = system: NCI-H23 lung
DMS 114 small cell lung = system: DMS 114 small cell lung
SN12C renal = system: SN12C renal
IGROV1 ovarian = system: IGROV1 ovarian
XF 498 CNS = system: XF 498 CNS
M19-MEL melanoma = system: M19-MEL melanoma
DLD-1 colon = system: DLD-1 colon
HT29 colon = system: HT29 colon
A498 renal = system: A498 renal
OVCAR-5 ovarian = system: OVCAR-5 ovarian
NCI-H522 lung = system: NCI-H522 lung
KM12 colon = system: KM12 colon
SF-295 CNS = system: SF-295 CNS
SR leukemia = system: SR leukemia
UO-31 renal = system: UO-31 renal
HCT-15 colon = system: HCT-15 colon
HOP-62 NSCLC = system: HOP-62 NSCLC
LXFL 529 NSCLC = system: LXFL 529 NSCLC
KM20L2 colon = system: KM20L2 colon
SW-620 colon = system: SW-620 colon
NCI-H226 lung = system: NCI-H226 lung
SK-MEL-2 melanoma = system: SK-MEL-2 melanoma
HL-60(TB) leukemia = system: HL-60(TB) leukemia
MOLT-4 leukemia = system: MOLT-4 leukemia
TK-10 renal = system: TK-10 renal
SNB-19 CNS = system: SNB-19 CNS
HOP-18 NSCLC = system: HOP-18 NSCLC
RPMI-8226 leukemia = system: RPMI-8226 leukemia
OVCAR-3 ovarian = system: OVCAR-3 ovarian
OVCAR-4 ovarian = system: OVCAR-4 ovarian
LOX IMVI melanoma = system: LOX IMVI melanoma
NCI-H460 lung = system: NCI-H460 lung
MALME-3M melanoma = system: MALME-3M melanoma
SF-539 CNS = system: SF-539 CNS
SNB-75 CNS = system: SNB-75 CNS
U251 CNS = system: U251 CNS
HCC-2998 colon = system: HCC-2998 colon
HOP-92 NSCLC = system: HOP-92 NSCLC
HCT-116 colon = system: HCT-116 colon
EKVX NSCLC = system: EKVX NSCLC
786-0 renal = system: 786-0 renal
ACHN renal = system: ACHN renal
COLO 205 colon = system: COLO 205 colon
RXF 393 renal = system: RXF 393 renal
M14 melanoma = system: M14 melanoma
SK-MEL-28 melanoma = system: SK-MEL-28 melanoma
CCRF-CEM leukemia = system: CCRF-CEM leukemia
SK-MEL-5 melanoma = system: SK-MEL-5 melanoma
CAKI-1 renal = system: CAKI-1 renal
DMS 273 small cell lung = system: DMS 273 small cell lung
SK-OV-3 ovarian = system: SK-OV-3 ovarian
UACC-62 melanoma = system: UACC-62 melanoma

## Cc1ccc(-n2c(=S)[nH]c3ccc(Br)cc3c2=O)cc1
K-562 leukemia
  TGI: > 100 µM
A549 NSCLC
  TGI: > 100 µM
UACC-257 melanoma
  TGI: > 100 µM
OVCAR-8 ovarian
  TGI: > 100 µM
SF-268 CNS
  TGI: > 100 µM
NCI-H23 lung
  TGI: > 100 µM
DMS 114 small cell lung
  TGI: > 100 µM
SN12C renal
  TGI: > 100 µM
IGROV1 ovarian
  TGI: > 100 µM
XF 498 CNS
  TGI: > 100 µM
M19-MEL melanoma
  TGI: > 100 µM
DLD-1 colon
  TGI: > 100 µM
HT29 colon
  TGI: > 100 µM
A498 renal
  TGI: > 100 µM
OVCAR-5 ovarian
  TGI: > 100 µM
NCI-H522 lung
  TGI: > 100 µM
KM12 colon
  TGI: > 100 µM
SF-295 CNS
  TGI: > 100 µM
SR leukemia
  TGI: > 100 µM
UO-31 renal
  TGI: > 100 µM
HCT-15 colon
  TGI: > 100 µM
HOP-62 NSCLC
  TGI: > 100 µM
LXFL 529 NSCLC
  TGI: > 100 µM
KM20L2 colon
  TGI: > 100 µM
SW-620 colon
  TGI: > 100 µM
NCI-H226 lung
  TGI: > 100 µM
SK-MEL-2 melanoma
  TGI: > 100 µM
HL-60(TB) leukemia
  TGI: > 100 µM
MOLT-4 leukemia
  TGI: > 100 µM
TK-10 renal
  TGI: > 100 µM
SNB-19 CNS
  TGI: > 100 µM
HOP-18 NSCLC
  TGI: > 100 µM
RPMI-8226 leukemia
  TGI: > 100 µM
OVCAR-3 ovarian
  TGI: > 100 µM
OVCAR-4 ovarian
  TGI: > 100 µM
LOX IMVI melanoma
  TGI: > 100 µM
NCI-H460 lung
  TGI: > 100 µM
MALME-3M melanoma
  TGI: > 100 µM
SF-539 CNS
  TGI: > 100 µM
SNB-75 CNS
  TGI: > 100 µM
U251 CNS
  TGI: > 100 µM
HCC-2998 colon
  TGI: > 100 µM
HOP-92 NSCLC
  TGI: > 100 µM
HCT-116 colon
  TGI: > 100 µM
EKVX NSCLC
  TGI: > 100 µM
786-0 renal
  TGI: > 100 µM
ACHN renal
  TGI: > 100 µM
COLO 205 colon
  TGI: > 100 µM
RXF 393 renal
  TGI: > 100 µM

## [O-][n+]1c2cc(CBr)c(CBr)cc2[n+]([O-])c2c(O)cccc21
A549 NSCLC
  TGI: 9.03 µM
UACC-257 melanoma
  TGI: 6.37 µM
M14 melanoma
  TGI: 3.29 µM
SK-MEL-28 melanoma
  TGI: 3.67 µM
CCRF-CEM leukemia
  TGI: 0.714 µM
OVCAR-8 ovarian
  TGI: 3.3 µM
SF-268 CNS
  TGI: 5.91 µM
NCI-H23 lung
  TGI: 6.68 µM
DMS 114 small cell lung
  TGI: 3.35 µM
SN12C renal
  TGI: 3.05 µM
IGROV1 ovarian
  TGI: 8.59 µM
XF 498 CNS
  TGI: 4.67 µM
M19-MEL melanoma
  TGI: 3.32 µM
DLD-1 colon
  TGI: 2.71 µM
HT29 colon
  TGI: 3.88 µM
A498 renal
  TGI: 25.7 µM
OVCAR-5 ovarian
  TGI: 3.74 µM
NCI-H522 lung
  TGI: 1.16 µM
SK-MEL-5 melanoma
  TGI: 4.39 µM
KM12 colon
  TGI: 3.66 µM
SF-295 CNS
  TGI: 3.27 µM
SR leukemia
  TGI: 0.662 µM
UO-31 renal
  TGI: 4.56 µM
HCT-15 colon
  TGI: 3.18 µM
HOP-62 NSCLC
  TGI: 34.7 µM
LXFL 529 NSCLC
  TGI: 2.89 µM
KM20L2 colon
  TGI: 9.53 µM
SW-620 colon
  TGI: 2.9 µM
CAKI-1 renal
  TGI: 6.7 µM
NCI-H226 lung
  TGI: 14.2 µM
SK-MEL-2 melanoma
  TGI: 4.83 µM
DMS 273 small cell lung
  TGI: 3.22 µM
HL-60(TB) leukemia
  TGI: 1.14 µM
SK-OV-3 ovarian
  TGI: 9.15 µM
MOLT-4 leukemia
  TGI: 1.25 µM
TK-10 renal
  TGI: 10.9 µM
SNB-19 CNS
  TGI: 11 µM
HOP-18 NSCLC
  TGI: 10.5 µM
OVCAR-3 ovarian
  TGI: 5.24 µM
OVCAR-4 ovarian
  TGI: 5.25 µM
LOX IMVI melanoma
  TGI: 2.64 µM
NCI-H460 lung
  TGI: 4.21 µM
MALME-3M melanoma
  TGI: 3.47 µM
SNB-75 CNS
  TGI: 4.48 µM
U251 CNS
  TGI: 7.07 µM
HOP-92 NSCLC
  TGI: 2.92 µM
HCT-116 colon
  TGI: 2.87 µM
EKVX NSCLC
  TGI: 11.6 µM
786-0 renal
  TGI: 2.93 µM
ACHN renal
  TGI: 3.51 µM
UACC-62 melanoma
  TGI: 3.39 µM
COLO 205 colon
  TGI: 3.47 µM
RXF 393 renal
  TGI: 3.69 µM
